Structures can show the parent of a compound that is named as a salt. The source made the active and inactive calls.
Tests used:
cells [1] = assay type: functional, cell-based
[2] = molecular target: T1, Trace amine-associated receptor 1 (Homo sapiens, UniProt Q96RJ0); assay: Fluorescence-based cell-based high throughput dose response assay to identify agonists of the human trace amine associated receptor 1 (TAAR1).; assay type: functional
T1 sequence (Q96RJ0 whole entry): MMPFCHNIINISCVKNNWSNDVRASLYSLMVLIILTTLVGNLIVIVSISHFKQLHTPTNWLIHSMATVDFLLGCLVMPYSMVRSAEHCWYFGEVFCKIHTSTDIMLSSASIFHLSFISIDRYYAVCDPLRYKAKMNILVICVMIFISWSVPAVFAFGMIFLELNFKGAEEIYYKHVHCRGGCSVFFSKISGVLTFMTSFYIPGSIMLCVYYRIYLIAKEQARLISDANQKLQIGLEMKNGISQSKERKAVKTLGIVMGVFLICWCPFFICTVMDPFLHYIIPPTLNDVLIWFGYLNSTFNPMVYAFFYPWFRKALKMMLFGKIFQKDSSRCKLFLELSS

[3] = molecular target: T1, Trace amine-associated receptor 1; assay: Counterscreen for agonists of the human trace amine associated receptor 1 (hTAAR1): Fluorescence-based cell-based high throughput dose response assay to identify hTAAR1 agonist that also desensitize TAAR1 receptor response.; assay type: functional
cells [4] = assay type: functional, cell-based; remark: listed apart in the source
[5] = ADAM10 inhibitors, peptide cleavage, dose response, biochemical, QFRET (AID 743254);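 also: ADAM10 enzyme with the DM2 quenched FRET peptide as substrate; EDANS fluorescence gain as the protease cuts the substrate; inhibitor potency against ADAM10 proteolytic activity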
[6] = ADAM10 protease inhibitors, dose response, selectivity assay for ADAM17 exosite inhibitor project, biochemical, FRET peptide substrate, recombinant human ADAM10 (AID 743259);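 also: ADAM10 enzyme cleaving a FRET peptide substrate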
[7] = molecular target: Potassium channel subfamily K member 3 (Homo sapiens, UniProt O14649); assay: TASK1 (KCNK3) potassium channel inhibitors, SAR follow-up, CHO cells, FluxOR thallium flux (AID 652212); assay type: functional
[8] = Luminescence-based cell-based high throughput dose response assay to identify activators of the DAF-12 from the parasite S. stercoralis (ssDAF-12).; assay type: functional
[9] = molecular target: T2, Oxysterols receptor LXR-beta (Homo sapiens, UniProt P55055); assay: LXR agonists, Gal4 luciferase reporter, dose response, counter-screen for ssDAF-12 agonist project, cell-based, luminescence, HEK293, S. stercoralis campaign (AID 720737); assay type: functional; conditions: read-out: IC50 (the source's name)
T2 sequence (P55055 whole entry): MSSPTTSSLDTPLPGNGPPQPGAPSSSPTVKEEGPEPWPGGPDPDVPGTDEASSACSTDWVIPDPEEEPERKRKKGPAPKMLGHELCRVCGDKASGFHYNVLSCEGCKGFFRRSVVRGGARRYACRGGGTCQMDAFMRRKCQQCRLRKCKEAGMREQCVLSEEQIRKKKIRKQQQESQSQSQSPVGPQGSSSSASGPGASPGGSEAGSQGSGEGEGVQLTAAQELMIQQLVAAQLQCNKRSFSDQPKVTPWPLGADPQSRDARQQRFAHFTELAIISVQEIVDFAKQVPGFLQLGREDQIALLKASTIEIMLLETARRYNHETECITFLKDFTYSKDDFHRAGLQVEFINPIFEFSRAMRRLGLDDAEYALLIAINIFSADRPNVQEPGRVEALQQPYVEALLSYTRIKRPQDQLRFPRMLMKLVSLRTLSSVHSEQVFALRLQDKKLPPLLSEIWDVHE

[10] = molecular target: Potassium channel subfamily K member 9 (Homo sapiens, UniProt Q9NPC2); assay: TASK3 (KCNK9) channel inhibitors, thallium flux, SAR follow-up, selectivity assay for TASK1 inhibitor project, cell-based, FluxOR thallium flux, concentration-response (AID 652211); assay type: functional;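 also: potency is for inhibitors of the channel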
[11] = molecular target: Disintegrin and metalloproteinase domain-containing protein 17 (Homo sapiens, UniProt P78536); assay: exosite inhibitors of ADAM17, dose response, biochemical (AID 743260)
HEK293 = assay: inhibitors of LMP1-driven NF-kB reporter, dose response, cell-based, HEK293, luciferase, cherry-pick (AID 588343); assay type: functional; conditions: Homo sapiens
[12] = inhibitors of HIV Env-driven cell fusion, dose response, cherry-pick (AID 652057); assay type: functional, cell-based
[13] = ZM109 Env clade C HIV-1 fusion inhibitors, dose response, HeLa effector, CEM target cells, luciferase, cherry-pick (AID 652058); assay type: functional, cell-based
[14] = off-target signal loss in HeLa-CEM21 co-culture – HeLa F-luc CTL cells, cherry-picked, counter-screen for HIV-1 Env fusion inhibitor project, dose response (AID 652040); assay type: functional, cell-based;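 also: potency for signal decrease marking cytotoxic or nonspecific inhibition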
[15] = inhibitors of clade B AD8 Env fusion, dose response, cell-based, cherry-pick (AID 652062); assay type: functional;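 also: luciferase signal from cell-cell fusion driven by HIV-1 clade B AD8 Env; potency is for inhibitors of fusion seen as a drop in luminescence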
Paired box protein Pax-8 = Paired box protein Pax-8 (Homo sapiens, UniProt Q06710); assay: inhibitors of PAX8-driven TPO luciferase reporter, dose response, RMG-I cells, cherry-pick (AID 687027); assay type: functional, cell-based;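 also: luciferase reporter driven by Pax8 target thyroperoxidase promoter measured by SteadyGlo luminescence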
[16] = NIH:OVCAR-3 ovarian cancer cell cytotoxicity, dose response, PAX8 inhibitor project, plate reader, dry powder samples (AID 743044); assay type: functional, cell-based
[17] = HEK293T cytotoxicity, dose response, cytotoxicity control for miR-122 modulator project, cell-based, activator set, cherry-pick (AID 720690); assay type: functional;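 also: HEK293T human cells scored for general mammalian cytotoxicity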
[18] = cytotoxicity in OVCAR8 ovarian cancer cells, dose response, PAX8 project, cell-based, plate reader, dry powder samples (AID 743197); assay type: functional; conditions: OVCAR-8
[19] = molecular target: T2, Oxysterols receptor LXR-beta; assay type: functional, cell-based
cells [20] = assay: cells
[21] = HEp-2 cell cytotoxicity, dose response, cytotoxicity control for RSV inhibitor project, HTS (AID 2410); assay type: functional; conditions: human respiratory syncytial virus
[22] = test system: Streptococcus sp. 'group A'; assay: growth inhibition of control SK(-) GAS strain, dose response, counter-screen for streptokinase expression inhibitor project, luminescence, kanamycin, BacTiterGlo, confirmation (AID 1900); assay type: functional, organism-based
Streptokinase A = molecular target: T3, Streptokinase A (Streptococcus pyogenes serotype M1, UniProt P10520); assay: S. pyogenes streptokinase expression inhibitors, potency, dose response, plasminogen activation absorbance, OD405 (AID 1914); assay type: functional, Streptococcus pyogenes M1 GAS;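 also: secreted streptokinase activity via plasminogen activation per viability signal from cell pellet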
T3 sequence (P10520 whole entry): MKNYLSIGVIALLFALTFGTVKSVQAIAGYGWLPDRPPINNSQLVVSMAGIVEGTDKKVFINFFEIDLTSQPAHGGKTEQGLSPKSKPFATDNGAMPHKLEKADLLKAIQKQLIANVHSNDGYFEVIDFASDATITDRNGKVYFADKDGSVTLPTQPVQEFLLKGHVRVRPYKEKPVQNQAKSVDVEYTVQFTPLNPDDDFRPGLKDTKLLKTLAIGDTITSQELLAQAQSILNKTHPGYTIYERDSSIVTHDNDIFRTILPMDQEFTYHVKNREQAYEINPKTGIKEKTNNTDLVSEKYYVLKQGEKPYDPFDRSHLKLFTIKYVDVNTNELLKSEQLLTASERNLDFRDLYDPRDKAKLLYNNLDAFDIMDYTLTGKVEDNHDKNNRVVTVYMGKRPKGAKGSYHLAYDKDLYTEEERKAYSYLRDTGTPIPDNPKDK

Streptococcus = assay: Group A Streptococcus viability loss, dose response, counter-screen for streptokinase expression inhibitor project, luminescence, BacTiterGlo (AID 1915); assay type: functional, organism-based;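 also: potency for reduction of bacterial viability or growth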
[23] = molecular target: T4, Beta-2 adrenergic receptor (Homo sapiens, UniProt P07550); assay: beta2AR agonists driving receptor internalization, dose response, cell-based, FAP fluorogen, flow cytometry, cherry pick 1 (AID 588763); assay type: functional
[24] = molecular target: T4, Beta-2 adrenergic receptor; assay: Dose response for HTS for Beta-2AR agonists via FAP method from Powderset3.; assay type: functional
[25] = P. falciparum late gametocyte killing, dose response, luminescence (AID 1117278); assay type: functional, cell-based;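 also: gametocytes exposed to compound for 24 hours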
[26] = Jurkat T cell cytotoxicity, dose response, cytotoxicity control for P. falciparum gametocyte viability project, luminescence (AID 1117277); assay type: functional, cell-based;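 also: potency reflects loss of cellular ATP meaning fewer viable cells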
INS1 = assay: beta cell apoptosis inhibitors, cytokine rescue, dose response, luminescence, retest (AID 449756); assay type: functional, cell-based; conditions: Rattus norvegicus;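 also: cell death triggered by IL-1 beta plus TNF-alpha plus IFN-gamma mixture; protective hits raise ATP signal compared with cytokine alone wells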
[27] = CEM21 lymphoblast cell cytotoxicity, dose response, cytotoxicity control for viral fusion inhibitor project, CellTiter-Glo luminescence, cherry-picked (AID 652042); assay type: functional, cell-based;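 also: potency for signal decrease meaning cytotoxicity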
[28] = intracellular Trypanosoma cruzi inhibitors in host cells – cell-based, plate reader, cherry-pick samples, set 3, dose response (AID 651818); assay type: functional;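 also: compounds incubated with infected cells for about four days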
[29] = T. cruzi growth inhibition in host cells, dose response, cell-based, plate reader, dry powder, set 2 (AID 652275); assay type: functional
[30] = growth inhibition of intracellular T. cruzi, dose response, cell-based, plate reader, dry powder samples (AID 651845); assay type: functional
[31] = T. cruzi intracellular amastigote growth inhibition, dose response, imaging, CA-I/72 strain, bovine embryo skeletal muscle, dry powder (AID 651885); assay type: functional, cell-based

T4 sequence (P07550 whole entry): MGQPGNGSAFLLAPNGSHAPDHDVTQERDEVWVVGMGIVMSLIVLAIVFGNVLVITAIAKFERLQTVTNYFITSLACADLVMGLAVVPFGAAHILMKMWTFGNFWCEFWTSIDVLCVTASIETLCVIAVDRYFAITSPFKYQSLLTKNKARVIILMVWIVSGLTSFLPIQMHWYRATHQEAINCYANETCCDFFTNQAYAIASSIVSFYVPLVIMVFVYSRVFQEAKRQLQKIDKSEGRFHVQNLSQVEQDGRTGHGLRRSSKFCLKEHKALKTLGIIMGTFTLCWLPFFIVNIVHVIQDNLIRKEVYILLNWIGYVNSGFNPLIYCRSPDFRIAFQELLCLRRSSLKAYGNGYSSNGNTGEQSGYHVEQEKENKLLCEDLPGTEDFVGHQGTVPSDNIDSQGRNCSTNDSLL
Disintegrin and metalloproteinase domain-containing protein 17, sequence (P78536 whole entry, the tested form may be a part): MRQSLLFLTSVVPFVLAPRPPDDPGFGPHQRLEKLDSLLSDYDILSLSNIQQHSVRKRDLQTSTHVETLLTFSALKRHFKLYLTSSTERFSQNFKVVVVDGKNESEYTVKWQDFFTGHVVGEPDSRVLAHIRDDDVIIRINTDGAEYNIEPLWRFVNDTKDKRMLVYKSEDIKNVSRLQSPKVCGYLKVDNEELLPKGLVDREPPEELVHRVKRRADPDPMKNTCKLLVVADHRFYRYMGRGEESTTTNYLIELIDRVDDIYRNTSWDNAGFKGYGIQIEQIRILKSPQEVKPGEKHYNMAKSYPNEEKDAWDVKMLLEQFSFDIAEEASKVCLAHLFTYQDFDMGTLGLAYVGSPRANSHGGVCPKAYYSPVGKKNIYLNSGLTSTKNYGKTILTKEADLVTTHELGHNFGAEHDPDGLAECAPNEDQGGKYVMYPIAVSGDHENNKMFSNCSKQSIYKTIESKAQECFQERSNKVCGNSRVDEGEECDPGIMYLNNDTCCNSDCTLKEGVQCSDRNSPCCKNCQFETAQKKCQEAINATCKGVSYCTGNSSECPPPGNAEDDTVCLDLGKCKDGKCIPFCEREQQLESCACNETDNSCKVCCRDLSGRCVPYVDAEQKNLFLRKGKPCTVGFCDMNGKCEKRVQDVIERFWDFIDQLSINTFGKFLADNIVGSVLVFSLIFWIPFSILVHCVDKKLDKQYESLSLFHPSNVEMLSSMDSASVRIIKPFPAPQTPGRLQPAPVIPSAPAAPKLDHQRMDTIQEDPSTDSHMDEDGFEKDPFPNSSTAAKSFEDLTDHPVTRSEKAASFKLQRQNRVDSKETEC
Potassium channel subfamily K member 3, sequence (O14649 whole entry): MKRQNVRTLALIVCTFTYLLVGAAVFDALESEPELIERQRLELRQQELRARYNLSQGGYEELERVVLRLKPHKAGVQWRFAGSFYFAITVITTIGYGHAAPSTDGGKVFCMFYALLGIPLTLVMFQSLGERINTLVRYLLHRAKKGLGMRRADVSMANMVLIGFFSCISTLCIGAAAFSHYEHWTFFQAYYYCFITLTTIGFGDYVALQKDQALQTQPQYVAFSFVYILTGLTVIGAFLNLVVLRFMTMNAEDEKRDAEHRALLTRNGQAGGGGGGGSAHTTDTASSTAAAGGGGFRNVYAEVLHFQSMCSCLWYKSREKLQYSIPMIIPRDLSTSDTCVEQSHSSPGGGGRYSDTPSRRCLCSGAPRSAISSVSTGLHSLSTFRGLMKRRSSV
Potassium channel subfamily K member 9, sequence (Q9NPC2 whole entry, the tested form may be a part): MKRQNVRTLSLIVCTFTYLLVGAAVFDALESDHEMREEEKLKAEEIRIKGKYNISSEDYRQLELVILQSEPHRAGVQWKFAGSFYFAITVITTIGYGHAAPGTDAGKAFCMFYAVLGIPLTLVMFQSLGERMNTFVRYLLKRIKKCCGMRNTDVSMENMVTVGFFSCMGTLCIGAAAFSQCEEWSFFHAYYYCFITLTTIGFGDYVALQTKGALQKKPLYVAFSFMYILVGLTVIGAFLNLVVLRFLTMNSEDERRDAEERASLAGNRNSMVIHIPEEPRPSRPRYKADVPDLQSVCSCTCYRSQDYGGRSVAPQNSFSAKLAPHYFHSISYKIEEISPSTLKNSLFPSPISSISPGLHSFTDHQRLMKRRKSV
Paired box protein Pax-8, sequence (Q06710 whole entry): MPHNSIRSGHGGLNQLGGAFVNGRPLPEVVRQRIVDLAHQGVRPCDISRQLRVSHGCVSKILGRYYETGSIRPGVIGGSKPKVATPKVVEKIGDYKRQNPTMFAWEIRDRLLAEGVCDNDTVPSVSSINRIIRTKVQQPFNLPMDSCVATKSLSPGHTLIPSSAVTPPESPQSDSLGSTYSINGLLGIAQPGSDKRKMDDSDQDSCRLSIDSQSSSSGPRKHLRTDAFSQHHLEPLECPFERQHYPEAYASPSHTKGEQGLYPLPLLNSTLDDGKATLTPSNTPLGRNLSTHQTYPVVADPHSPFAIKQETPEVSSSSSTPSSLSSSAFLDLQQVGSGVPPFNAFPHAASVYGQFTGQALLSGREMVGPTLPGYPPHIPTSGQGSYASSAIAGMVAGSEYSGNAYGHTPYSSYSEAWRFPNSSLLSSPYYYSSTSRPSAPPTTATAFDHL

In the case of O=C(Cc1nnc(NC(=O)Nc2ccccc2)s1)NCc1ccccc1, the IC50 (cells [1]) was > 29.9 µM (inactive), the EC50 [2] was > 29.9 µM (inactive) and the IC50 [3] was > 29.9 µM (inactive). The EC50 (cells [4]) was > 29.9 µM (inactive).
In the case of CNC(=O)[C@@H](NC(=O)[C@H](CC(C)C)[C@H](O)C(=O)NO)C(C)(C)C, the IC50 [5] was 0.0607 µM (active) and the IC50 [6] was 0.0358 µM (active).
In the case of O=C(Nc1cccc(NC(=O)c2ccccc2)c1)c1ccccc1, the IC50 [7] was 0.024 µM (active).
For O=C(CSc1nc2nncc-2c(O)[nH]1)Nc1nccs1, the IC50 [8] was > 67.6 µM (inactive) and the EC50 [9] was > 67.6 µM (inactive).
With Cc1cccc(C(=O)Nc2cccc(NC(=O)c3ccccc3C(F)(F)F)c2)c1 the IC50 [10] was 12.9 µM (active).
In the case of C[C@H](NC(=O)c1nc[nH]c1C(=O)NC(c1ccccc1)c1ccccc1)C(=O)OCc1ccccc1, the IC50 [11] was > 69.5 µM (inactive).
With O=C1CCCCC1Sc1nnc(-c2ccc3c(c2)OCO3)o1 (configuration not stated) the AC50 (HEK293) was 0.841 µM (active), the AC50 [12] was 2.73 µM (active) and the AC50 [13] was 41.9 µM (active). For the same compound, the AC50 [14] was 12.3 µM (active) and the AC50 [15] was 6.84 µM (active).
For COc1ccc(S(=O)(=O)Nc2ccc3c(c2)CC(=O)N([C@@H](C)CO)C[C@@H](C)[C@H](CN(C)Cc2ccc(C(F)(F)F)cc2)O3)cc1, the AC50 [12] was 13.4 µM (active), the AC50 (Paired box protein Pax-8) was 6.77 µM (active) and the AC50 [15] was 18.5 µM (active). For the same compound, the AC50 [16] was 24.4 µM (active), the AC50 [17] was 25.5 µM (active) and the AC50 [18] was 29.5 µM (active).
With CC(C)(C)NC(=O)C(c1cc2ccccc2o1)n1c(-c2ccc(-c3ccccc3)cc2)nc2ccccc21 (configuration not stated) the IC50 [8] was > 67.6 µM (inactive), the EC50 [9] was > 67.6 µM (inactive) and the EC50 [19] was > 67.6 µM (inactive). For the same compound, the EC50 (cells [20]) was > 67.6 µM (inactive).
In the case of CC(Oc1ccc(Cl)cc1Cl)c1nc(-c2ccc(NC(=O)c3ccco3)cc2)no1 (configuration not stated), the CC50 [21] was 20.2 µM (active), the EC50 [22] was 21.7 µM (active) and the EC50 (Streptokinase A) was > 150 µM (not active). For the same compound, the EC50 (Streptococcus) was 25.7 µM (active), the EC50 [23] was 7.06 µM (active) and the EC50 [24] was 0.204 µM (active). The IC50 [25] was > 109 µM (inactive) and the IC50 [26] was > 83.3 µM (inactive).
In the case of CCCCCCn1c(=O)c(C(=O)Nc2ncccc2C)c(O)c2ccccc21, the EC50 [22] was 0.566 µM (active), the EC50 (Streptococcus) was 1.98 µM (active) and the AC50 (INS1) was 7.92 µM (active). The AC50 [12] was 5.24 µM (active), the AC50 [27] was 28.6 µM (active) and the AC50 [13] was 3.78 µM (active). The AC50 [14] was 5.77 µM (active) and the AC50 [15] was 4.02 µM (active).
In the case of C[C@@H]1CN([C@H](C)CO)C(=O)c2cccc(NC(=O)c3ccncc3)c2O[C@H]1CN(C)Cc1ccc(C(F)(F)F)cc1, the AC50 [28] was 0.344 µM (active), the AC50 [29] was 0.0647 µM (active) and the AC50 [30] was 0.0597 µM (active). The IC50 [31] was 0.048 µM (active).
With c1ccc(CC2=NCCN2)cc1 [TOLAZOLINE HYDROCHLORIDE] the IC50 (cells [1]) was > 29.9 µM (inactive), the EC50 [2] was 1.01 µM (active) and the IC50 [3] was 4.74 µM (active). For the same compound, the EC50 (cells [4]) was > 29.9 µM (inactive).
With O=C(Nc1cccc(Cl)c1)OCCOCCOC(=O)Nc1cccc(Cl)c1 the IC50 [11] was > 69.4 µM (inactive) and the IC50 [6] was 12.9 µM (inactive).
